# Data taken from US20050209157A1, “Short bioactive peptides and methods for their use” (priority 2001, published 2005).
# Like-named read-outs stand apart in the source and are kept apart here. No end group written: not given here.
# What was measured:
# [1] = test system: H1299; assay: Anti-cancer assay, MTT, LD50; format: cell-based; details: 24 hours with peptide, lung large cell carcinoma
# Description: (§1) Numbers are LD50 values (μg/mL).
# [2] = test system: HeLaS3; assay: Anti-cancer assay, MTT, LD50; format: cell-based; details: 24 hours with peptide, cervical carcinoma
# Description: as §1
# [3] = test system: PC3; assay: Anti-cancer assay, MTT, LD50; format: cell-based; details: 24 hours with peptide, prostate adenocarcinoma
# Description: as §1
# [4] = in vitro; format: cell-based, human; details: human, human red blood cells
# Experimental: This hemolytic assay is based upon that presented in Journal of Peptide Research 53: 82-90 (1999). […] All procedures were performed according to safety protocols pertaining to the handling and disposal of human body fluids.
# Red blood cells (RBCs) were washed three times with PBS (35 mM phosphate buffer 0.15 M NaCl, pH 7.0). RBCs suspended in PBS (0.4% (v/v); about 10 ml per 15 peptides) were prepared. Suspensions (100 μl) were aliquoted to each sample and control tube. Serially diluted peptide solutions (100 μl) were pipetted into the sample tubes. Negative control tubes contained 100 μl PBS; positive control tubes contained 100 μl 1% Triton-X100 detergent. All tubes were incubated for 1 hour at 37° C. The tubes were removed from the incubator and centrifuged at 1000 g for 5 minutes. Supernatant (100 μl) was pipetted to a 96-well polyvinyl chloride plate. The absorbance at 414 nm (A414) was measured, and used to calculate the percent hemolysis according to the following formula. [formula]
# [5] = in vitro; details: human, WI38 normal lung fibroblast cells
# [6] = test system: BMKC; assay: Anti-cancer assay, MTT, LD50; format: cell-based; details: BMKC cloned melanoma line, 24 hours with peptide
# Description: as §1
# [7] = test system: MCF7; assay: Anti-cancer assay, MTT, LD50; format: cell-based; details: MCF7 breast adenocarcinoma line, MTT, 24 hours with peptide
# Description: as §1
# [8] = test system: SW480; assay: Anti-cancer assay, MTT, LD50; format: cell-based; details: SW480 colon adenocarcinoma line, 24 hours with peptide
# Description: as §1
# [9] = test system: WI38; details: MTT, 24 hours with peptide; for WI38 LD50: normal fibroblast line
# [10] = pH 7, hemolytic assay, concentration at 50% hemolysis, 1 hour at 37° C., read-out: LD50
# [11] = WI38 LD50, MTT, 24 hours with peptide, normal fibroblast line
# [12] = LD50 WI38, WI38 normal lung fibroblast line, MTT, 24 hours with peptide
# [13] = pH 7, Table 26, valine substitution, read-out: Hemolysis RBC LD50
# [14] = WI-38 LD50, Table 26, valine substitution
compound,measurement,setting,value
FAKKLAKKLKKLAKKLAK-NH2 [Shiva 10 (1-18) AM],H1299 LD50,[1],71 µg/mL
same,HeLaS3 LD50,[2],190 µg/mL
same,PC3 LD50,[3],81 µg/mL
same,HC50 at 1 h,[4]; [10],900 µg/mL
same,CC50 at 24 h,[5]; [11],101 µg/mL
FALALKALKKA-NH2 [Flak 96H],LD50 BMKC,[6],> (> indicates greater than 1000)
same,H1299 LD50,[1],> (> indicates greater than 1000)
same,HeLaS3 LD50,[2],> (> indicates greater than 1000)
same,LD50 MCF7,[7],> (> indicates greater than 1000)
same,PC3 LD50,[3],> (> indicates greater than 1000)
same,LD50 SW480,[8],> (> indicates greater than 1000)
same,WI38 LD50,[9],> (> indicates greater than 1000)
same,LD50 WI38,[9]; WI38 normal lung fibroblast line,> (> indicates greater than 1000)
VALALKALKKLLKKLKKLAKKAL-NH2 [03 AMV],LD50 MCF7,[7],62 µg/mL
same,CC50 at 24 h,[5]; [12],77 µg/mL
"GIGKFLHSAKKFGKAFVGGIMNS-NH2 [P16, reference compound]",HC50 at 1 h,[4]; [10],550 µg/mL
VAKKLAKLAKKLLAL-NH2 [FLAK43 AM V],LD50 MCF7,[7],86 µg/mL
same,CC50 at 24 h,[5]; [12],85 µg/mL
VALALKALKKALKKLKKALKKAL-OH [HECATE AC V],LD50 MCF7,[7],160 µg/mL
same,CC50 at 24 h,[5]; [12],190 µg/mL
VALALKALKKLAKKLKKLAKKAL-NH2 [FLAK04 AM V],LD50 MCF7,[7],84 µg/mL
same,CC50 at 24 h,[5]; [12],95 µg/mL
VAKLLAKALKKLL-NH2 [P506],HC50 at 1 h,[4]; [10],120 µg/mL
MPKWKVFKKIEKVGRNIRNGIVKAGPAIAVLGEAKALG-OH [SB37COOH],LD50 BMKC,[6],120 µg/mL
same,H1299 LD50,[1],220 µg/mL
same,HeLaS3 LD50,[2],150 µg/mL
same,LD50 MCF7,[7],175 µg/mL
same,LD50 SW480,[8],82 µg/mL
same,WI38 LD50,[9],130 µg/mL
same,CC50 at 24 h,[5]; [12],130 µg/mL
VAKALKALLKALKAL-NH2 [FLAK 17 CV],LD50 MCF7,[7],23 µg/mL
same,CC50 at 24 h,[5]; [12],26 µg/mL
CC(C)C[C@H](NC(=O)[C@H](C)NC(=O)[C@H](CC(C)C)NC(=O)[C@H](C)NC(=O)[C@H](CC(C)C)NC(=O)[C@H](CCCCN)NC(=O)[C@H](C)NC(=O)[C@H](CC(C)C)NC(=O)[C@H](CCCCN)NC(=O)[C@H](CCCCN)NC(=O)[C@H](C)NC(=O)[C@H](CC(C)C)NC(=O)[C@H](CCCCN)NC(=O)[C@H](C)NC(=O)[C@H](CC(C)C)NC(=O)[C@H](CCCCN)NC(=O)[C@H](CCCCN)NC(=O)[C@H](C)NC(=O)[C@@H](N)C(C)C)C(N)=O [compound 504],HC50 at 1 h,[4]; [13],70 µg/mL
same,CC50 at 24 h,[5]; [14],110 µg/mL
VALALKALKKLAKKLKKLAKKAL-NH2 [compound 509],HC50 at 1 h,[4]; [13],40 µg/mL
same,CC50 at 24 h,[5]; [14],95 µg/mL
FALLKALLKKAL-NH2 [Flak 961],H1299 LD50,[1],240 µg/mL
same,HeLaS3 LD50,[2],380 µg/mL
same,PC3 LD50,[3],120 µg/mL
same,CC50 at 24 h,[5]; [11],270 µg/mL
"VAKFLAKFLKKAL-NH2 [P502, VAKFLAKFLKKAL-NH2]",HC50 at 1 h,[4]; [10],100 µg/mL
"VAKKLAKLAKKLLAL-NH2 [P505, VAKKLAKLAKKLLAL-NH2]",HC50 at 1 h,[4]; [10],620 µg/mL
VALALKALKKL-NH2 [compound 180],HC50 at 1 h,[4]; [13],850 µg/mL
same,CC50 at 24 h,[5]; [14],1000 µg/mL
VALALKALKKALKKLKKALKKAL-OH [compound 508],HC50 at 1 h,[4]; [13],70 µg/mL
same,CC50 at 24 h,[5]; [14],190 µg/mL
VAKFLAKFLKKAL-NH2 [FLAK50 Q1V],LD50 MCF7,[7],92 µg/mL
same,CC50 at 24 h,[5]; [12],64 µg/mL
VAKKFAKKFKKFAKKFAKFAFAF-NH2 [compound 503],HC50 at 1 h,[4]; [13],20 µg/mL
same,CC50 at 24 h,[5]; [14],150 µg/mL
VAKLLAKALKKLL-NH2 [FLAK50D V],LD50 MCF7,[7],45 µg/mL
same,CC50 at 24 h,[5]; [12],75 µg/mL
CC(C)C[C@H](NC(=O)[C@H](C)NC(=O)[C@H](CC(C)C)NC(=O)[C@H](C)NC(=O)[C@H](CC(C)C)NC(=O)[C@H](CCCCN)NC(=O)[C@H](C)NC(=O)[C@H](CC(C)C)NC(=O)[C@H](CCCCN)NC(=O)[C@H](CCCCN)NC(=O)[C@H](C)NC(=O)[C@H](CC(C)C)NC(=O)[C@H](CCCCN)NC(=O)[C@H](C)NC(=O)[C@H](CC(C)C)NC(=O)[C@H](CCCCN)NC(=O)[C@H](CCCCN)NC(=O)[C@H](C)NC(=O)[C@@H](N)C(C)C)C(N)=O [FLAK 25 AM V],LD50 MCF7,[7],130 µg/mL
same,CC50 at 24 h,[5]; [12],110 µg/mL
"VAKALKALLKALKAL-NH2 [P501, VAKALKALLKALKAL-NH2]",HC50 at 1 h,[4]; [10],15 µg/mL
VAKKFAKKFKKFAKKFAKFAFAF-NH2 [P503],LD50 MCF7,[7],210 µg/mL
same,HC50 at 1 h,[4]; [10],20 µg/mL
same,CC50 at 24 h,[5]; [12],150 µg/mL
VAKKLAKLAKKLLAL-NH2 [compound 505],HC50 at 1 h,[4]; [13],620 µg/mL
same,CC50 at 24 h,[5]; [14],85 µg/mL
FAKKLAKKLKKLAKKLIGAVLKV-OH [SHIVA 11 [(1-16)ME(2-9]-COOH],LD50 BMKC,[6],94 µg/mL
same,H1299 LD50,[1],54 µg/mL
same,HeLaS3 LD50,[2],180 µg/mL
same,LD50 MCF7,[7],95 µg/mL
same,PC3 LD50,[3],28 µg/mL
same,LD50 SW480,[8],120 µg/mL
same,WI38 LD50,[9],34 µg/mL
same,CC50 at 24 h,[5]; [12],34 µg/mL
CC[C@H](C)[C@H](NC(=O)CN)C(=O)NCC(=O)N[C@@H](C)C(=O)N[C@H](C(=O)N[C@@H](CC(C)C)C(=O)N[C@@H](CCCCN)C(=O)N[C@H](C(=O)N[C@@H](CC(C)C)C(=O)N[C@H](C(=O)N[C@H](C(=O)NCC(=O)N[C@@H](CC(C)C)C(=O)N1CCC[C@H]1C(=O)N[C@@H](C)C(=O)N[C@@H](CC(C)C)C(=O)N[C@H](C(=O)N[C@@H](CO)C(=O)N[C@@H](Cc1c[nH]c2ccccc12)C(=O)N[C@H](C(=O)N[C@@H](CCCCN)C(=O)N[C@@H](CCCNC(=N)N)C(=O)N[C@@H](CCCCN)C(=O)N[C@@H](CCCNC(=N)N)C(=O)N[C@@H](CCC(N)=O)C(=O)N[C@@H](CCC(N)=O)C(N)=O)[C@@H](C)CC)[C@@H](C)CC)[C@@H](C)O)[C@@H](C)O)C(C)C)C(C)C [MELITTIIN],LD50 BMKC,[6],18 µg/mL
same,H1299 LD50,[1],25 µg/mL
same,HeLaS3 LD50,[2],35 µg/mL
same,LD50 MCF7,[7],9 µg/mL
same,PC3 LD50,[3],13 µg/mL
same,LD50 SW480,[8],23 µg/mL
same,WI38 LD50,[9],16 µg/mL
same,CC50 at 24 h,[5]; [12],16 µg/mL
VALALKALKKALKKLKKALKKAL-NH2 [P30],WI38 LD50,[9],93 µg/mL
FAKKLAKKLKKLAKKLAK-NH2 [Shiva 10(1-18)AM],LD50 BMKC,[6],66 µg/mL
same,LD50 MCF7,[7],45 µg/mL
same,LD50 SW480,[8],63 µg/mL
same,CC50 at 24 h,[5]; [12],101 µg/mL
CC(C)C[C@H](NC(=O)[C@H](C)NC(=O)[C@H](CC(C)C)NC(=O)[C@H](C)NC(=O)[C@H](CC(C)C)NC(=O)[C@H](CCCCN)NC(=O)[C@H](C)NC(=O)[C@H](CC(C)C)NC(=O)[C@H](CCCCN)NC(=O)[C@H](CCCCN)NC(=O)[C@H](C)NC(=O)[C@H](CC(C)C)NC(=O)[C@H](CCCCN)NC(=O)[C@H](C)NC(=O)[C@H](CC(C)C)NC(=O)[C@H](CCCCN)NC(=O)[C@H](CCCCN)NC(=O)[C@H](C)NC(=O)[C@@H](N)Cc1ccccc1)C(N)=O [P36],LD50 BMKC,[6],56 µg/mL
same,H1299 LD50,[1],57 µg/mL
same,LD50 MCF7,[7],9 µg/mL
same,PC3 LD50,[3],19 µg/mL
same,LD50 SW480,[8],30 µg/mL
same,HC50 at 1 h,[4]; [10],85 µg/mL
same,WI38 LD50,[9],19 µg/mL
same,CC50 at 24 h,[5]; [12],19 µg/mL
"KLAKKLAKLAKLAKAL-NH2 [P159, reference compound]",LD50 BMKC,[6],140 µg/mL
same,H1299 LD50,[1],74 µg/mL
same,HeLaS3 LD50,[2],275 µg/mL
same,LD50 MCF7,[7],61 µg/mL
same,PC3 LD50,[3],145 µg/mL
same,LD50 SW480,[8],140 µg/mL
same,WI38 LD50,[9],82 µg/mL
same,CC50 at 24 h,[5]; [12],82 µg/mL
FAKKFAKKFKKFAKKFAKFAFAF-NH2 [compound 301],HC50 at 1 h,[4]; [13],10 µg/mL
VAKFLAKFLKKAL-NH2 [compound 502],HC50 at 1 h,[4]; [13],100 µg/mL
same,CC50 at 24 h,[5]; [14],64 µg/mL
